Data taken from patent US7288407B2, “Stable cytochrome P450 24 (CYP24) expressing cell line and methods and uses thereof” (Cytochroma, Inc., priority 2002, dated 2007).

Target: T1, CYP24 (Homo sapiens, UniProt Q07973)
T1 construct: The full-length CYP24 cDNA was amplified using one-step RT-PCR kit; expressed in transfected cells
T1 sequence (Q07973 36-514): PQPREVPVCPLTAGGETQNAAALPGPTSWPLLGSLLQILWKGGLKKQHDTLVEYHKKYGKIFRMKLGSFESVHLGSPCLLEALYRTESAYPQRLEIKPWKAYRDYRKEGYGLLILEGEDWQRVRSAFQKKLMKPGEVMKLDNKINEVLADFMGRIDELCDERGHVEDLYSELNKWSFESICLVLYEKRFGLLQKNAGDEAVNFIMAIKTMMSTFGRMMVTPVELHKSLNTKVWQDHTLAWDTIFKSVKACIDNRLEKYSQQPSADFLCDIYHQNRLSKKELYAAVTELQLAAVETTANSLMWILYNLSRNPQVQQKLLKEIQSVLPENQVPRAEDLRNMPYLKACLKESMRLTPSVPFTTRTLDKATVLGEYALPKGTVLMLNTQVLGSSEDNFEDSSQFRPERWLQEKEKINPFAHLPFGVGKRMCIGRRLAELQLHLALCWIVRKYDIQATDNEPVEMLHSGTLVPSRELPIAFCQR
Assay: CYP24 enzyme assay using stable CYP24-V79 cells
Assay type: cell-based
Conditions: Bligh-Dyer extraction, organic phase from 3 hours analyzed by HPLC
Method: CYP24/V79 cells were suspended, counted, seeded on well plates and extracted using the Bligh-Dyer extraction method. […] To induce cells, media was removed and the cells washed with 1× PBS buffer. […] Next, a cell suspension was prepared at the day of assay by removing the medium and washing the cell with PBS. 2 ml tripsin/EDTA was added to the plate which was kept in 37° C. for 5 min. Next, 3 ml EDTA medium+1% FCS was added followed by transfer to a 50 ml tube. The plate was washed with 5 ml PBS and mixed. The mix was centrifuged (2,000 rpm, 5 min) and the suspended cells pelleted in DMEM medium+1% BSA. […] About 5 mL 1× PBS buffer was added to collect cells from the plate and then placed in a 50 mL tube followed by repetition with second cell line. About 5 mL 1× PBS buffer was added to further wash the plate and added to the original 50 mL tube. Tubes were centrifuged (2,000 rpm/800 g for 6 minutes) and the supernatant removed. […] The cells were counted via hemocytometer and density adjusted to 250,000 cells/150 μL (1.67 million/1 mL) and then 150 μL added to appropriately labeled wells of 48-well plate. […] The cells were counted and cell density was adjusted to 500,000/150 μL. […] The plate is counted in a scintillation counter. Enzyme activity was then calculated.

CC[C@H]1OC(=O)[C@H](C)[C@@H](O[C@H]2C[C@@](C)(OC)[C@@H](O)[C@H](C)O2)[C@H](C)[C@@H](O[C@@H]2O[C@H](C)C[C@H](N(C)C)[C@H]2O)[C@](C)(O)C[C@@H](C)C(=O)[C@H](C)[C@@H](O)[C@]1(C)O [erythromycin]
effect on CYP24 activity (inhibitor/activator): inhibitors
